According to ChEMBL document CHEMBL1121962, “Synthesis of 4-amino-1-beta-D-ribofuranosyl-1H-pyrrolo[2,3-b]pyridine (1-deazatubercidin) as a potential antitumor agent” (J Med Chem, 1982):
The source made the active and inactive calls. No cut-off for these calls is given here.

Experiments:
Mus musculus [1] = organism: Mus musculus; test: Effect tested against murine leukemia L1210 cells; Inactive; assay type: functional, cell-based
Mus musculus [2] = organism: Mus musculus; test: Effect tested against murine sarcoma S-180 cells; Inactive; assay type: functional, cell-based

## Nc1ccnc2c1ccn2C1O[C@H](CO)[C@@H](O)[C@H]1O (some centres not stated)
Mus musculus [1]
  Activity: inactive
Mus musculus [2]
  Activity: inactive
